Data on one substance can be found in patent publication US9228089B2, “Polyester polyamine and polyester polyquaternary ammonium corrosion inhibitors” (AKZO NOBEL CHEMICALS INTERNATIONAL B.V., priority 2010, dated 2016).

For experiment [1] the following is noted: example 6 of PCT/EP2010/059325, cited from earlier work.
Experiment [2] is described as follows: bubble test, corrosion rate monitored by linear polarization resistance (LPR) in CO2-saturated synthetic Forties brine. To be noted: 80 ppm active inhibitor, 54° C. On the procedure: The tests were carried out using the well-known “bubble test” method, see for instance the discussion in NACE International, Vol. 46, No. 5, pp 46-51 (May 2007), where corrosion rate is monitored by linear polarization resistance (LPR). First a baseline corrosion rate in the medium is established, and then corrosion rates with different amounts of inhibitor added are measured.
The detailed conditions for the tests were as follows: • Temperature 54° C. • CO2 CO2 Saturated at ambient pressure (˜0.9 bara partial pressure) • Liquids 100% Typical “Forties” (North Sea water) synthetic brine as shown below: • Chloride=42539 mg/l • Sulphate=0 mg/l • Barium=173 mg/l • Calcium=1979 mg/l • Strontium=351 mg/l • Magnesium=377 mg/l • Sodium=24973 mg/l • Potassium=341 mg/l • Bicarbonate=200 mg/l • Electrode Fabricated from AISI 1018 (UNS G10180), polished to 600 grit finish, degreased rinsed and dried • Inhibitor Concentration 4 hour precorrosion without inhibitor, then dose with 10 ppm of inhibitor and evaluate corrosion rate for at least 8 h, then add inhibitor so that the next level of total inhibitor dosage is reached according to Table 1. After each addition the corrosion rate is measured for at least 8 h. • Gas and partial pressure Ambient pressure test. […]

As to “C12-C16 Cocoalkyl di-methyl benzyl quaternary amine”, the “% protection at 20 ppm” value in experiment [1] (20 ppm) is listed as −28%. Also, the “% protection at 50 ppm” value in experiment [1] (50 ppm) is 38%. Besides, in experiment [2], the “% Protection at 80 ppm” value was 89.6%.
